{
  "source": "patent US20100168041A1",
  "about": "“COMBINATION OF MONOSACCHARIDES AND DESQUAMATING AGENTS, AND USE THEREOF” (L'OREAL, priority 2008, published 2010)",
  "key": {"[1]": {"test_system": "keratinocytes (HaCat line)", "experiment": "Proliferation of keratinocytes (Cyquant, Nile red, XTT markers)", "format": "cell-based", "settings": "keratinocytes cultured in medium depleted in growth factors, vs untreated control", "description": "The keratinocytes (HaCat line) are cultured under two conditions: whole defined culture medium (standard condition) and culture medium deficient in growth factors. This deficient medium gives rise to a controlled delay in cell proliferation. Under these conditions, it is then possible to measure the effects of compounds capable of compensating for the deficiency in growth factors of the culture medium and thus of relaunching the cell multiplication and/or of stimulating cell metabolism.\nThe keratinocyte proliferation is measured by means of three markers on the same cell population: the level of DNA, which is proportional to the number of cells (Cyquant probe), the level of constituent polar lipids of cell membranes (Nile red probe) and the mitochondrial respiration, which reflects the general cell metabolism (XTT probe)."}, "type I procollagen": {"test_system": "type I procollagen", "experiment": "Synthesis of procollagen 1 in reconstructed skin (indirect immunofluorescence)", "format": "cell-based, human", "settings": "for procollagen 1 synthesis: reconstructed skin", "description": "Conventional detection via indirect immunofluorescence of type I procollagen in the dermis of the reconstructed skin was also performed on other series of frozen sections (anti-procoll 1 antibody (MAB 1912 Millipore)+FTIC-coupled conjugate (112-095-068 Jackson Immunoresearch)). In order to obtain bearings within the cutaneous architecture during the microscopic examination of the sections, the cell nuclei of the keratinocytes and fibroblasts are localized by staining them with propidium iodide, as described above. Three frozen sections are prepared at random on each reconstructed skin and on each section, and two microscopic fields (25× objective lens) are analysed by fluorescence microscopy and photographed. The levels of fluorescence proportional to the amount of type I procollagen are compared between the control skin and the skin treated with rhamnose."}, "[2]": {"test_system": "dermal fibroblasts of the reconstructed skin", "experiment": "Proliferation of fibroblasts in whole reconstructed skin (propidium iodide count)", "format": "cell-based, human", "settings": "5 mM, within 48 hours of treatment", "source_text": "Rhamnose was studied on a model of whole reconstructed skin in order to measure its anti-ageing efficacy on the dermal compartment.\nBriefly, the model of reconstructed skin used is that described by Bell et al. (Bell E. et al., The reconstitution of living skin, J. Invest. Dermatol., 1983, July; 81): it includes a dermal equivalent on which is reconstructed a multistratified epidermis; the dermal equivalent is manufactured from acid-soluble collagen, culture medium containing serum and normal adult human fibroblasts. After 5 days of shrinkage, this equivalent is inoculated with keratinocytes and then cultured for 6 days in immersion and for 7 days in emersion in order to obtain a multistratified and differentiated epidermis having a horny layer.\nThe reconstructed skin is treated with 5 mM rhamnose for 2 days and 5 days in the culture medium; after the treatment, the reconstructed skins are included in Tissue Tek in order to produce frozen sections 7 μm thick with a cryostat. […] Three frozen sections are prepared at random on each reconstructed skin; on each section, two microscopic fields (25× objective lens) are analysed by fluorescence microscopy and photographed. The dermal fibroblasts are thus counted for each reconstructed skin on six images in total representing the six microscopic fields considered. […]"}},
  "data": [
    {"smiles": "C[C@H](O)[C@H](O)[C@@H](O)[C@@H](O)C=O", "note": "[rhamnose, Rhamnose]", "values": [
      {"measurement": "keratinocyte proliferation", "setting": "[1]", "result": "activate keratinocyte proliferation"},
      {"measurement": "green fluorescence (proportional to amount of type I procollagen) vs control skin", "setting": "type I procollagen; 1 mM for 120 hours", "result": "marked increase"},
      {"measurement": "synthesis of type I procollagen by the fibroblasts", "setting": "type I procollagen; 1 mM for 120 hours", "result": "greatly stimulated"},
      {"measurement": "procollagen 1 synthesis", "setting": "type I procollagen; 1 mM", "result": "stimulation of procollagen 1 synthesis"},
      {"measurement": "procollagen 1 synthesis", "setting": "type I procollagen; 5 mM", "result": "stimulation of procollagen 1 synthesis"},
      {"measurement": "growth of the dermal fibroblasts", "setting": "[2]", "result": "induces stimulation of growth"}
    ]}
  ]
}
